Reference: patent US10870652B2, “Compounds and methods for modulating bruton's tyrosine kinase” (CORVUS PHARMACEUTICALS, INC., priority 2016, dated 2020)

Legend:
Type in all cases: biochemical
BTK = BTK (Homo sapiens, UniProt Q06187); assay: BTK IC50 kinase inhibition assay
TXK = target: T1, TXK (Homo sapiens, UniProt P42681); assay: TXK IC50 kinase inhibition assay
T1 sequence (P42681 1-527): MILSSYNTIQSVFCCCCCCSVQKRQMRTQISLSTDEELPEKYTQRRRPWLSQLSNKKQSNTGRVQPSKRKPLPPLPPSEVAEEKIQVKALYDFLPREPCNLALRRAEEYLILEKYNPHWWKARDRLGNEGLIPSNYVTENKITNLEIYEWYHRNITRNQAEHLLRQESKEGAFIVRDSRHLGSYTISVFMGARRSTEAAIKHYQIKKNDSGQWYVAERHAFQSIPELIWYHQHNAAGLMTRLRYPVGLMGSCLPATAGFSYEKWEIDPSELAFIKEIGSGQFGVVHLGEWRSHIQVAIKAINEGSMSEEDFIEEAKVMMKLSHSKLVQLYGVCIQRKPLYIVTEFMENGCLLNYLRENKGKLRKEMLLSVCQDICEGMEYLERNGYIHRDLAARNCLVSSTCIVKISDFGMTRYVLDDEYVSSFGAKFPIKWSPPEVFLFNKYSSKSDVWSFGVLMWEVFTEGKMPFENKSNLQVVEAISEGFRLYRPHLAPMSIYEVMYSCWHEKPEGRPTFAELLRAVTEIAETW

ITK = target: T2, ITK (Homo sapiens, UniProt Q08881); assay: ITK IC50 kinase inhibition assay
T2 sequence (Q08881 1-620): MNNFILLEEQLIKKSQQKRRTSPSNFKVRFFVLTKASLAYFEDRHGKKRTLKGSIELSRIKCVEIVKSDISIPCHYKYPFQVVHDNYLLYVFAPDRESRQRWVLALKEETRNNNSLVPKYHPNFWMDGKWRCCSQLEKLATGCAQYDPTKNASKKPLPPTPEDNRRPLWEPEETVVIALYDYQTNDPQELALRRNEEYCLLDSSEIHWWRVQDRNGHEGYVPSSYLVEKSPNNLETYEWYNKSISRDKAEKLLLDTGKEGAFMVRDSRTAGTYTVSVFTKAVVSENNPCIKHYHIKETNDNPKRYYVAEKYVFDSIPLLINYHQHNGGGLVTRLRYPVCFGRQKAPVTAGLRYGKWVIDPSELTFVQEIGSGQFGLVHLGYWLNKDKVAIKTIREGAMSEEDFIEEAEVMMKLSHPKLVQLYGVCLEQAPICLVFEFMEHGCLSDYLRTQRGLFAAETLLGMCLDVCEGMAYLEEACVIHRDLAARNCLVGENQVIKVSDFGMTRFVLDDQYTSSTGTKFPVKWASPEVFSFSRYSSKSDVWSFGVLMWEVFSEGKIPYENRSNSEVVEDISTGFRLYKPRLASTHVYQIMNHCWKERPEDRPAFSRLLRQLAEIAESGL

JAK3 = target: T3, JAK3 (Homo sapiens, UniProt P52333); assay: JAK3 IC50 kinase inhibition assay
T3 sequence (P52333 1-1124): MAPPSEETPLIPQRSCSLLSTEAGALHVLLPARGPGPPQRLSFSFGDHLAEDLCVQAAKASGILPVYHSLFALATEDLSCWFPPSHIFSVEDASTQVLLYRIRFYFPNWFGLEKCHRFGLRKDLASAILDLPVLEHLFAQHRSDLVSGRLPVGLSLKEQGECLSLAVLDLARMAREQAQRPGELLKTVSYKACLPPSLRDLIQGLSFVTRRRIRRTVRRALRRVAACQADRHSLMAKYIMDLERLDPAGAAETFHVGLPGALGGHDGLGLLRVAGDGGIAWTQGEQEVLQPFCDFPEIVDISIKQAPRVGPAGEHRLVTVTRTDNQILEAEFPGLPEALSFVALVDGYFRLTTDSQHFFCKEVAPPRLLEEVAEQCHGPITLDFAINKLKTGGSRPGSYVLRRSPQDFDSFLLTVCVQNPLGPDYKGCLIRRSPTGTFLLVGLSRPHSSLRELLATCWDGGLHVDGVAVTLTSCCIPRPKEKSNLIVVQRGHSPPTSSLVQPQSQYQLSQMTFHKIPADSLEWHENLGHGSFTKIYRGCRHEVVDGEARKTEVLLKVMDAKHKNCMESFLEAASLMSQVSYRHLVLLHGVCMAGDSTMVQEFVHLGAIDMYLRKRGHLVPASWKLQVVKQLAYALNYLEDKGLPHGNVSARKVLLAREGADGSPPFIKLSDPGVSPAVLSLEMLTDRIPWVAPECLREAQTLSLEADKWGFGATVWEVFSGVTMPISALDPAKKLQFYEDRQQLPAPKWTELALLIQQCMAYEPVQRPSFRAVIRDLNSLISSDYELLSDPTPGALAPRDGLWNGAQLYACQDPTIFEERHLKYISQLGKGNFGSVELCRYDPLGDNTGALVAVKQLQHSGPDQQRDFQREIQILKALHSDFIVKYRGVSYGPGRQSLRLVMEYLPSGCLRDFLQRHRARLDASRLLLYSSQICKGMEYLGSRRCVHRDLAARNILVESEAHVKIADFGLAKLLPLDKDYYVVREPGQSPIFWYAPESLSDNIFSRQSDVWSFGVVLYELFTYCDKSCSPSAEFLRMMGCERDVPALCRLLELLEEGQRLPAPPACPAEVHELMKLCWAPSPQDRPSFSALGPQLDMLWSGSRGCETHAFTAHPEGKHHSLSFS

Sequence of BTK (Q06187 whole entry): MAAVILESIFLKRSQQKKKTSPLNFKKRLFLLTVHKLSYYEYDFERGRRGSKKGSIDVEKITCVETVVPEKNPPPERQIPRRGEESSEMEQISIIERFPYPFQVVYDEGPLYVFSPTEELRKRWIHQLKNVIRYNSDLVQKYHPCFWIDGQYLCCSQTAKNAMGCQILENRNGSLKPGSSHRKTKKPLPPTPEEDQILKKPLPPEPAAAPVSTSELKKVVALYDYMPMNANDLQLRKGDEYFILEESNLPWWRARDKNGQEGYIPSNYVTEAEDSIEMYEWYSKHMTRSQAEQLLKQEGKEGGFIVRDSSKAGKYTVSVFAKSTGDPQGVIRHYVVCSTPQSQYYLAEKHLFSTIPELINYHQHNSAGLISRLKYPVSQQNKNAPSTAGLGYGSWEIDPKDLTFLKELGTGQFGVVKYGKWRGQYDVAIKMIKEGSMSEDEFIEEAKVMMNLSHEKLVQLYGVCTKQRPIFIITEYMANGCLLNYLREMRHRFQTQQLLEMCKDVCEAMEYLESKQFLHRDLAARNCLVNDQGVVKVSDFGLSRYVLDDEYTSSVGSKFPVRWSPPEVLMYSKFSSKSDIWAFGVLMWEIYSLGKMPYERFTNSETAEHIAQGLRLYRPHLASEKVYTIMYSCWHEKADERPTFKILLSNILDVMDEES

IC50 (BTK) [nM]	IC50 (TXK) [nM]	IC50 (ITK) [nM]	IC50 (JAK3) [nM]	SMILES
< 100	< 100	> 500	> 500	C=CC(=O)N1CCC[C@@H](c2nc(-c3ccc(Oc4ccccc4)cc3)c3cnccn23)C1 [Compound A28, (R)-1-(3-(1-(4-phenoxyphenyl)imidazo[1,5-a]pyrazin-3-yl)piperidin-1-yl)prop-2-en-1-one]
< 100	< 100	> 500	> 500	C=CC(=O)N1CCC[C@@H](n2nc(-c3ccc(Oc4cccc(F)c4)cc3)c3cncnc32)C1 [Compound A39, (R)-1-(3-(3-(4-(3-fluorophenoxy)phenyl)-1H-pyrazolo[3,4-d]pyrimidin-1-yl)piperidin-1-yl)prop-2-en-1-one]
< 100	< 100	> 500	> 500	C=CC(=O)N1CCC[C@@H](n2nc(-c3ccc(Oc4ccccc4)cc3)c3cncc(C#N)c32)C1 [Compound A72, (R)-1-(1-acryloylpiperidin-3-yl)-3-(4-phenoxyphenyl)-1H-pyrazolo[4,3-c]pyridine-7-carbonitrile]
< 100	< 100	> 500	> 500	C=CC(=O)N1CCC[C@H]1Cn1nc(-c2ccc(Oc3ccccc3)cc2)c2cncnc21 [Compound A8, (S)-1-(2-((3-(4-phenoxyphenyl)-1H-pyrazolo[3,4-d]pyrimidin-1-yl)methyl)pyrrolidin-1-yl)prop-2-en-1-one]
> 500	> 500	> 500	> 500	CC#CC(=O)N1CCC(Cn2nc(-c3ccc(Oc4ccccc4)cc3)c3cncnc32)CC1 [Compound A57, 1-(4-((3-(4-phenoxyphenyl)-1H-pyrazolo[3,4-d]pyrimidin-1-yl)methyl)piperidin-1-yl)but-2-yn-1-one]
> 500	> 500	> 500	> 500	CC#CC(=O)N1CC(Cn2nc(-c3ccc(Oc4ccccc4)cc3)c3cncnc32)C1 [Compound A58, 1-(3-((3-(4-phenoxyphenyl)-1H-pyrazolo[3,4-d]pyrimidin-1-yl)methyl)azetidin-1-yl)but-2-yn-1-one]
< 100	100 to 500	> 500	> 500	C=CC(=O)N1CCC[C@H]1c1nc(-c2ccc(Oc3ccccc3)cc2)c2cnccn12 [Compound A29, (S)-1-(2-(1-(4-phenoxyphenyl)imidazo[1,5-a]pyrazin-3-yl)pyrrolidin-1-yl)prop-2-en-1-one]
> 500	< 100	> 500	> 500	CC#CC(=O)Nc1ccccc1Cn1nc(-c2ccc(Oc3ccccc3)cc2)c2cncnc21 [Compound A61, N-(2-((3-(4-phenoxyphenyl)-1H-pyrazolo[3,4-d]pyrimidin-1-yl)methyl)phenyl)but-2-ynamide]
100 to 500	100 to 500	> 500	> 500	CCC#CC(=O)N1CC2(CC(n3nc(-c4ccc(Oc5ccccc5)cc4)c4cncnc43)C2)C1 [Compound A71, 1-(6-(3-(4-phenoxyphenyl)-1H-pyrazolo[3,4-d]pyrimidin-1-yl)-2-azaspiro[3.3]heptan-2-yl)pent-2-yn-1-one]
< 100	100 to 500	> 500	> 500	C=CC(=O)N1CC2(CC(n3nc(-c4ccc(Oc5ccccc5)cc4)c4cncnc43)C2)C1 [Compound A37, 1-(6-(3-(4-phenoxyphenyl)-1H-pyrazolo[3,4-d]pyrimidin-1-yl)-2-azaspiro[3.3]heptan-2-yl)prop-2-en-1-one]
> 500	> 500	> 500	> 500	CC#CC(=O)N1CCC2(CC1)CC(n1nc(-c3ccc(Oc4ccccc4)cc3)c3cncnc31)C2 [Compound A68, 1-(2-(3-(4-phenoxyphenyl)-1H-pyrazolo[3,4-d]pyrimidin-1-yl)-7-azaspiro[3.5]nonan-7-yl)but-2-yn-1-one]
< 100	> 500	> 500	> 500	CN(C)C/C=C/C(=O)N1CC[C@@H](n2nc(-c3ccc(Oc4ccccc4)cc3)c3cncnc32)C1 [Compound A25]
100 to 500	> 500	> 500	> 500	CC#CC(=O)N1CCC[C@@H]1Cn1nc(-c2ccc(Oc3ccccc3)cc2)c2cncnc21 [Compound A65, (R)-1-(2-((3-(4-phenoxyphenyl)-1H-pyrazolo[3,4-d]pyrimidin-1-yl)methyl)pyrrolidin-1-yl)but-2-yn-1-one]
100 to 500	> 500	> 500	> 500	O=C(C#CC1CC1)N1CC2(CC(n3nc(-c4ccc(Oc5ccccc5)cc4)c4cncnc43)C2)C1 [Compound A78, 3-Cyclopropyl-1-(6-(3-(4-phenoxyphenyl)-1H-pyrazolo[3,4-d]pyrimidin-1-yl)-2-azaspiro[3.3]heptan-2-yl)prop-2-yn-1-one]
< 100	< 100	> 500	> 500	C=CC(=O)N1CC[C@@H](n2nc(-c3ccc(Oc4ccccc4)cc3F)c3cncnc32)C1 [Compound A17, (R)-1-(3-(3-(2-fluoro-4-phenoxyphenyl)-1H-pyrazolo[3,4-d]pyrimidin-1-yl)pyrrolidin-1-yl)prop-2-en-1-one]
< 100	> 500	> 500	> 500	C=CC(=O)N1CCC[C@H]1Cn1nc(-c2ccc(Oc3ccccc3)cc2)c2cncc(C#N)c21 [Compound A74, (S)-1-((1-Acryloylpyrrolidin-2-yl)methyl)-3-(4-phenoxyphenyl)-1H-pyrazolo[4,3-c]pyridine-7-carbonitrile]
< 100	< 100	> 500	> 500	C=CC(=O)N1CCC[C@H]1Cn1nc(-c2ccc(Oc3cccc(CC)c3)cc2)c2cncnc21 [Compound A46, (S)-1-(2-((3-(4-(3-ethylphenoxy)phenyl)-1H-pyrazolo[3,4-d]pyrimidin-1-yl)methyl)pyrrolidin-1-yl)prop-2-en-1-one]
100 to 500	> 500	> 500	> 500	CC#CC(=O)N1CC[C@@H](n2nc(-c3ccc(Oc4ccccc4)cc3)c3cncnc32)C1 [Compound A18, (R)-1-(3-(3-(4-phenoxyphenyl)-1H-pyrazolo[3,4-d]pyrimidin-1-yl)pyrrolidin-1-yl)but-2-yn-1-one]
